According to patent publication US10766928B2, “Targeted conformationally-constrained kinked endosomal disrupting peptides” (priority 2012, dated 2020):
Values after ≈ are worked out from the molar mass of the structure shown. Like-named read-outs stand apart in the source and are kept apart here. Non-standard residues stand in square brackets, D forms with d. Residues, ends and D or L forms follow the SMILES beside them. *: point of attachment. Pentanoyl(5-NH-cholesteryl) = CC(C)CCC[C@@H](C)[C@H]1CC[C@H]2[C@@H]3CC=C4C[C@@H](NCCCCC(=O)*)CC[C@]4(C)[C@H]3CC[C@]12C; Cholesteryloxycarbonyl = CC(C)CCC[C@@H](C)[C@H]1CC[C@H]2[C@@H]3CC=C4C[C@@H](OC(=O)*)CC[C@]4(C)[C@H]3CC[C@]12C; PEG3 = NCCOCCOCCOCCC(=O)O; Aib = CC(C)(N)C(=O)O; Ahx = NCCCCCC(=O)O; βAla = NCCC(=O)O

Experiments:
[1] = Thermodynamic solubility in PBS (pH 7.4); assay type: physicochemical; conditions: phosphate buffered saline, pH 7.4, Table 3; PBS pH 7.4, 24 h at 22° C.; read-out: Solubility
Text: Values in parentheses represent 95% confidence intervals. N.D., not determined.
Measurements represent duplicate or more replicates, with active peptides subjected to multiple replicates. ND: not determined. The peptide was non-toxic and soluble in cell culture medium at this concentration.

[2] = system: endosomes of Jurkat lymphocytes; experiment: Endosome disruption in Jurkat lymphocytes: release of carboxyfluorescein from disulfide probe Compound 2, flow cytometry; conditions: for Efficacy (% of max. 1): % change in cellular fluorescence relative to maximal response of Compound 1 (100%); for Efficacy (% of max. 1) / Efficacy (% of 1): Jurkat; for Efficacy (% of 1): % of the effect of compound 1, calculated span of dose-response curve, ± standard deviation
Method: The effects of the compounds of the invention on human Juikat leukemia cells were evaluated using flow cytometry-based assays of potency, efficacy, and toxicity. […] Analysis of flow cytometry data by non-linear regression was used to determine IC50 values for potency with the efficacy expressed as a percentage. […] Dose-dependent effects on cellular viability after 48 h at 37° C. in culture were also measured by flow cytometry.
The # represents the compound number in accordance with Tables A, B, and C. Concentrations of compound stock solutions were determined by absorbance measurements at 280 nm. Efficacy was determined as % change in cellular fluorescence relative to the maximal response of Compound 1, defined as 100%. Potencies and efficacies in Jurkat lymphocytes were measured by flow cytometry after treatment of cells with the compounds listed and the fluorescent probe Compound 2 (2.5 μM) for 14 hours. Toxicity to this cell line was determined by flow cytometry analysis of light scattering and counterstaining with PI after treatment for 48 h at 37° C. in culture. […] N.D., not determined.
Cells were treated with fluorescent molecular probe Compound 2 (2.5 μM) and endosome disruptors for 14 hours at 37° C. Enhanced cellular fluorescence resulting from release of the pH-sensitive fluorophore Compound 3 into the cytoplasm was quantified by flow cytometry.
Natural amino acids are represented by single letter codes. Codes for non-standard elements are as follows: Ch1: (3β-Cholest-5-en-3-yl-ammonio)pentanoyl; Ch2: (Cholester-3-yl)oxy-βAla-βAla; X: ε-Ahx; U: Aib; PB: Pacific Blue fluorophore. O: 3-(2-(2-(2-aminoethoxy)ethoxy)ethoxy)propanyl.

[3] = read-out: Potency, Table 2, EC50 ± standard deviation, Jurkat lymphocytes, disulfide-linked fluorescent probe (2.5 μM), 14 h

Row | solubility thermodynamic at 24 h [1] [µM] | EC50 [2, 3] [µM] | Molecule | Efficacy (% of max. 1) ([2]; Table 1, 14 hours) | Efficacy (% of 1) ([2]; Table 2, 14 h) [%] | EC50 ([2]; 14 h) [µM] | further results
1 | 86 ± 5 (≈ 123 µg/mL) | – | CC(C)[C@H](NC(=O)[C@@H](NC(=O)[C@@H]1CCCN1C(=O)[C@@H]1CCCN1C(=O)[C@H](C)NC(=O)[C@H](Cc1ccc(O)cc1)NC(=O)[C@H](C)NC(=O)[C@H](Cc1c[nH]c2ccccc12)NC(=O)[C@H](Cc1c[nH]c2ccccc12)NC(=O)C(C)(C)NC(=O)C(C)(C)NC(=O)C(C)(C)NC(=O)C(C)(C)N)C(C)C)C(N)=O [Compound 48] (H-[Aib][Aib][Aib][Aib]WWAYAPPVV-NH2) | <<50% | <10 | – | –
2 | 48 ± 3 (≈ 72.7 µg/mL) | > 15 | CC(C)[C@H](NC(=O)[C@H](C)NC(=O)[C@@H]1CCCN1C(=O)[C@@H]1CCCN1C(=O)[C@H](Cc1c[nH]c2ccccc12)NC(=O)[C@H](Cc1ccc(O)cc1)NC(=O)[C@H](C)NC(=O)[C@H](Cc1c[nH]c2ccccc12)NC(=O)[C@H](Cc1c[nH]c2ccccc12)NC(=O)C(C)(C)NC(=O)C(C)(C)NC(=O)C(C)(C)NC(=O)C(C)(C)N)C(N)=O [Compound 51] (H-[Aib][Aib][Aib][Aib]WWAYWPPAV-NH2) | <50% | – | – | –
3 | – | – | CC(C)CCC[C@@H](C)[C@H]1CC[C@H]2[C@@H]3CC=C4C[C@@H](NCCCCC(=O)NCCC(=O)N[C@@H](CCC(=O)O)C(=O)N[C@@H](CCC(=O)O)C(=O)NCCCCCC(=O)NC(C)(C)C(=O)NC(C)(C)C(=O)NC(C)(C)C(=O)N[C@@H](Cc5c[nH]c6ccccc56)C(=O)N[C@@H](Cc5c[nH]c6ccccc56)C(=O)N[C@@H](C)C(=O)N[C@@H](Cc5ccc(O)cc5)C(=O)N[C@@H](Cc5c[nH]c6ccccc56)C(=O)N[C@@H](C)C(=O)N5CCC[C@H]5C(=O)N[C@H](C(=O)N[C@@H](C)C(N)=O)C(C)C)CC[C@]4(C)[C@H]3CC[C@]12C [Compound 16, R = BEEXUUUWWAYWAPVA-CONH2] ({Pentanoyl(5-NH-cholesteryl)-βAla}-EE[Ahx][Aib][Aib][Aib]WWAYWAPVA-NH2) | – | – | 1.6 | –
4 | – | – | CC(C)CCC[C@@H](C)[C@H]1CC[C@H]2[C@@H]3CC=C4C[C@@H](NCCCCC(=O)NCCC(=O)N[C@@H](CCC(=O)O)C(=O)N[C@@H](CCC(=O)O)C(=O)NCCCCCC(=O)NC(C)(C)C(=O)NC(C)(C)C(=O)NC(C)(C)C(=O)N[C@@H](Cc5c[nH]c6ccccc56)C(=O)N[C@@H](Cc5c[nH]c6ccccc56)C(=O)N[C@@H](C)C(=O)N[C@@H](C)C(=O)N[C@@H](Cc5c[nH]c6ccccc56)C(=O)N5CCC[C@H]5C(=O)N5CCC[C@H]5C(=O)N[C@H](C(=O)N[C@@H](C)C(N)=O)C(C)C)CC[C@]4(C)[C@H]3CC[C@]12C [Compound 14, R = BEEXUUUWWAAWPPVA-CONH2] ({Pentanoyl(5-NH-cholesteryl)-βAla}-EE[Ahx][Aib][Aib][Aib]WWAAWPPVA-NH2) | – | – | 1.2 | –
5 | 86 ± 5 (≈ 123 µg/mL) | – | CC(C)[C@H](NC(=O)[C@@H](NC(=O)[C@@H]1CCCN1C(=O)[C@@H]1CCCN1C(=O)[C@H](Cc1c[nH]c2ccccc12)NC(=O)[C@H](Cc1ccc(O)cc1)NC(=O)[C@H](C)NC(=O)[C@H](C)NC(=O)[C@H](Cc1c[nH]c2ccccc12)NC(=O)C(C)(C)NC(=O)C(C)(C)NC(=O)C(C)(C)NC(=O)C(C)(C)N)C(C)C)C(N)=O [Compound 46] (H-[Aib][Aib][Aib][Aib]WAAYWPPVV-NH2) | <<50% | <10 | – | –
6 | – | 0.08 ± 0.01 | Ch1-EEOOUUUUYYYYPPVV-NH2 [Compound 86] | – | 125 ± 10 | – | –
7 | – | – | CC(C)CCC[C@@H](C)[C@H]1CC[C@H]2[C@@H]3CC=C4C[C@@H](NCCCCC(=O)NCCC(=O)N[C@@H](CCC(=O)O)C(=O)N[C@@H](CCC(=O)O)C(=O)NCCCCCC(=O)NC(C)(C)C(=O)NC(C)(C)C(=O)NC(C)(C)C(=O)N[C@@H](Cc5c[nH]c6ccccc56)C(=O)N[C@@H](Cc5c[nH]c6ccccc56)C(=O)N[C@@H](C)C(=O)N[C@@H](Cc5ccc(O)cc5)C(=O)N[C@@H](Cc5c[nH]c6ccccc56)C(=O)N5CCC[C@H]5C(=O)N[C@@H](C)C(=O)N[C@H](C(=O)N[C@@H](C)C(N)=O)C(C)C)CC[C@]4(C)[C@H]3CC[C@]12C [Compound 17, R = BEEXUUUWWAYWPAVA-CONH2] ({Pentanoyl(5-NH-cholesteryl)-βAla}-EE[Ahx][Aib][Aib][Aib]WWAYWPAVA-NH2) | – | – | 2.1 | –
8 | 41 ± 2 | > 15 | Ac-AAAWWAYWPPVA-NH2 [Compound 40] | <<50% | – | – | –
9 | – | – | CC(C)CCC[C@@H](C)[C@H]1CC[C@H]2[C@@H]3CC=C4C[C@@H](NCCCCC(=O)NCCC(=O)N[C@@H](CCC(=O)O)C(=O)N[C@@H](CCC(=O)O)C(=O)NCCCCCC(=O)NCCCCCC(=O)NC(C)(C)C(=O)NC(C)(C)C(=O)NC(C)(C)C(=O)NC(C)(C)C(=O)N[C@@H](Cc5ccccc5)C(=O)N[C@@H](Cc5ccccc5)C(=O)N[C@@H](C)C(=O)N[C@@H](Cc5ccccc5)C(=O)N[C@@H](Cc5ccccc5)C(=O)N5CCC[C@H]5C(=O)N5CCC[C@H]5C(=O)N[C@H](C(=O)N[C@@H](C)C(N)=O)C(C)C)CC[C@]4(C)[C@H]3CC[C@]12C [Compound 22, R = BEEXXUUUUFFAFFPPVA-CONH2] ({Pentanoyl(5-NH-cholesteryl)-βAla}-EE[Ahx][Ahx][Aib][Aib][Aib][Aib]FFAFFPPVA-NH2) | – | – | > 10 | –
10 | – | 4 ± 1 | CC(C)[C@H](NC(=O)[C@@H](NC(=O)[C@@H]1CCCN1C(=O)[C@@H]1CCCN1C(=O)[C@H](Cc1ccc(O)cc1)NC(=O)[C@H](Cc1ccc(O)cc1)NC(=O)[C@H](C)NC(=O)[C@H](Cc1ccc(O)cc1)NC(=O)[C@H](Cc1ccc(O)cc1)NC(=O)[C@H](C)NC(=O)[C@H](Cc1ccc(O)cc1)NC(=O)[C@H](Cc1ccc(O)cc1)NC(=O)C(C)(C)NC(=O)C(C)(C)NC(=O)C(C)(C)NC(=O)C(C)(C)N)C(C)C)C(N)=O [Compound 85] (H-[Aib][Aib][Aib][Aib]YYAYYAYYPPVV-NH2) | – | >125 | – | –
11 | – | – | CC(C)CCC[C@@H](C)[C@H]1CC[C@H]2[C@@H]3CC=C4C[C@@H](NCCCCC(=O)NCCC(=O)N[C@@H](CCC(=O)O)C(=O)N[C@@H](CCC(=O)O)C(=O)NCCCCCC(=O)N[C@@H](CO)C(=O)N[C@@H](CO)C(=O)N[C@@H](C)C(=O)N[C@@H](Cc5c[nH]c6ccccc56)C(=O)N[C@@H](Cc5c[nH]c6ccccc56)C(=O)N[C@@H](CO)C(=O)N[C@@H](Cc5ccc(O)cc5)C(=O)N[C@@H](Cc5c[nH]c6ccccc56)C(=O)N5CCC[C@H]5C(=O)N5CCC[C@H]5C(=O)N[C@H](C(=O)N[C@@H](C)C(N)=O)C(C)C)CC[C@]4(C)[C@H]3CC[C@]12C [Compound 6, R = BEEXSSAWWSYWPPVA-CONH2] ({Pentanoyl(5-NH-cholesteryl)-βAla}-EE[Ahx]SSAWWSYWPPVA-NH2) | – | – | 3.5 | –

Row | Molecule | solubility thermodynamic at 24 h [1] [µM] | EC50 [2, 3] [µM] | Efficacy (% of max. 1) ([2]; Table 1, 14 hours) | Efficacy (% of 1) ([2]; Table 2, 14 h) [%] | EC50 ([2]; 14 h) [µM] | further results
12 | CC(C)CCC[C@@H](C)[C@H]1CC[C@H]2[C@@H]3CC=C4C[C@@H](OC(=O)NCCC(=O)NCCC(=O)N[C@@H](CCC(=O)O)C(=O)N[C@@H](CCC(=O)O)C(=O)NCCOCCOCCOCCC(=O)NCCOCCOCCOCCC(=O)NC(C)(C)C(=O)NC(C)(C)C(=O)NC(C)(C)C(=O)NC(C)(C)C(=O)N[C@@H](Cc5c[nH]c6ccccc56)C(=O)N[C@@H](Cc5ccc(O)cc5)C(=O)N[C@@H](C)C(=O)N[C@@H](Cc5c[nH]c6ccccc56)C(=O)N[C@@H](Cc5ccc(O)cc5)C(=O)N[C@@H](C)C(=O)N[C@@H](Cc5c[nH]c6ccccc56)C(=O)N[C@@H](Cc5ccc(O)cc5)C(=O)N5CCC[C@H]5C(=O)N5CCC[C@H]5C(=O)N[C@H](C(=O)N[C@H](C(N)=O)C(C)C)C(C)C)CC[C@]4(C)[C@H]3CC[C@]12C [Compound 84, Ch2-EEOOUUUUWYAWYAWYPPVV-NH2] ({Cholesteryloxycarbonyl-βAla-βAla}-EE[PEG3][PEG3][Aib][Aib][Aib][Aib]WYAWYAWYPPVV-NH2) | 21 ± 1 (≈ 66.4 µg/mL) | – | – | – | – | –
13 | CC(C)[C@H](NC(=O)[C@@H](NC(=O)[C@H](C)NC(=O)[C@@H]1CCCN1C(=O)[C@H](Cc1c[nH]c2ccccc12)NC(=O)[C@H](Cc1ccc(O)cc1)NC(=O)[C@H](C)NC(=O)[C@H](Cc1c[nH]c2ccccc12)NC(=O)[C@H](Cc1c[nH]c2ccccc12)NC(=O)C(C)(C)NC(=O)C(C)(C)NC(=O)C(C)(C)NC(=O)C(C)(C)N)C(C)C)C(N)=O [Compound 50] (H-[Aib][Aib][Aib][Aib]WWAYWPAVV-NH2) | 22 ± 2 (≈ 33.4 µg/mL) | 9 ± 3 | 71% | 54 ± 3 | – | Endosome disruption activity (in words) ([2]; Jurkat endosome disruption assay): substantial activity
14 | CC(C)[C@H](NC(=O)[C@@H](NC(=O)[C@@H]1CCCN1C(=O)[C@H](C)NC(=O)[C@H](Cc1c[nH]c2ccccc12)NC(=O)[C@H](Cc1ccc(O)cc1)NC(=O)[C@H](C)NC(=O)[C@H](Cc1c[nH]c2ccccc12)NC(=O)[C@H](Cc1c[nH]c2ccccc12)NC(=O)C(C)(C)NC(=O)C(C)(C)NC(=O)C(C)(C)NC(=O)C(C)(C)N)C(C)C)C(N)=O [Compound 49] (H-[Aib][Aib][Aib][Aib]WWAYWAPVV-NH2) | 21 ± 2 (≈ 31.9 µg/mL) | – | 45% | 35 ± 2 | – | EC50 ([2]; read-out: Potency (EC50), Table 1, Jurkat lymphocytes, probe Compound 2 (2.5 μM), 14 hours, 95% confidence interval in neighbouring cell): 12 µM
